In brackets after ≈: the same amount, converted by molar mass. Activity calls are given as the source filed them. No cut-off for these calls is given here.
Tests used:
[1] = system: Mycobacterium tuberculosis; test: Antimycobacterial activity against Mycobacterium tuberculosis H37Rv 331/88 after 14 days by micromethod; type: functional; conditions: H37Rv 331/88, 336 h
[2] = system: Mycobacterium tuberculosis; test: Antimycobacterial activity against Mycobacterium tuberculosis H37Rv 331/88 after 21 days by micromethod; type: functional; conditions: H37Rv 331/88, 504 h
Mycobacterium avium [3] = test: Antimycobacterial activity against Mycobacterium avium 330/88 after 14 days by micromethod; type: functional; conditions: 330/88, 336 h
Mycobacterium avium [4] = test: Antimycobacterial activity against Mycobacterium avium 330/88 after 21 days by micromethod; type: functional; conditions: 330/88, 504 h
Mycobacterium kansasii [5] = test: Antimycobacterial activity against Mycobacterium kansasii 6509/80 after 7 days by micromethod; type: functional; conditions: 6509/80, 168 h
Mycobacterium kansasii [6] = test: Antimycobacterial activity against Mycobacterium kansasii 6509/80 after 14 days by micromethod; type: functional; conditions: 6509/80, 336 h
Mycobacterium kansasii [7] = test: Antimycobacterial activity against Mycobacterium kansasii 6509/80 after 21 days by micromethod; type: functional; conditions: 6509/80, 504 h
Mycobacterium kansasii [8] = test: Antimycobacterial activity against Mycobacterium kansasii 6509/96 after 7 days by micromethod; type: functional; conditions: 6509/96, 168 h
Mycobacterium kansasii [9] = test: Antimycobacterial activity against Mycobacterium kansasii 6509/96 after 14 days by micromethod; type: functional; conditions: 6509/96, 336 h
Mycobacterium kansasii [10] = test: Antimycobacterial activity against Mycobacterium kansasii 6509/96 after 21 days by micromethod; type: functional; conditions: 6509/96, 504 h
Staphylococcus aureus [11] = test: Antibacterial activity against gram-positive Staphylococcus aureus CCM 4516/08 after 24 hrs by microdilution broth method; type: functional; conditions: CCM 4516/08, 24 h
Staphylococcus aureus [12] = test: Antibacterial activity against gram-positive Staphylococcus aureus CCM 4516/08 after 48 hrs by microdilution broth method; type: functional; conditions: CCM 4516/08, 48 h
Staphylococcus aureus [13] = test: Antibacterial activity against gram-positive methicillin-resistant Staphylococcus aureus H 5996/08 after 24 hrs by microdilution broth method; type: functional; conditions: H 5996/08, 24 h
Staphylococcus aureus [14] = test: Antibacterial activity against gram-positive methicillin-resistant Staphylococcus aureus H 5996/08 after 48 hrs by microdilution broth method; type: functional; conditions: H 5996/08, 48 h
[15] = system: Staphylococcus epidermidis; test: Antibacterial activity against gram-positive Staphylococcus epidermidis H 6966/08 after 24 hrs by microdilution broth method; type: functional; conditions: H 6966/08, 24 h
[16] = system: Staphylococcus epidermidis; test: Antibacterial activity against gram-positive Staphylococcus epidermidis H 6966/08 after 48 hrs by microdilution broth method; type: functional; conditions: H 6966/08, 48 h
Enterococcus faecalis [17] = test: Antibacterial activity against gram-positive Enterococcus faecalis J 14365/08 after 24 hrs by microdilution broth method; type: functional; conditions: J 14365/08, 24 h
Enterococcus faecalis [18] = test: Antibacterial activity against gram-positive Enterococcus faecalis J 14365/08 after 48 hrs by microdilution broth method; type: functional; conditions: J 14365/08, 48 h
Escherichia coli [19] = test: Antibacterial activity against gram-negative Escherichia coli CCM 4517 after 24 hrs by microdilution broth method; type: functional; conditions: CCM 4517, 24 h
Escherichia coli [20] = test: Antibacterial activity against gram-negative Escherichia coli CCM 4517 after 48 hrs by microdilution broth method; type: functional; conditions: CCM 4517, 48 h
Klebsiella pneumoniae [21] = test: Antibacterial activity against gram-negative Klebsiella pneumoniae D 11750/08 after 24 to 48 hrs by microdilution broth method; type: functional, organism-based
Pseudomonas aeruginosa = test: Antibacterial activity against gram-negative Pseudomonas aeruginosa CCM 1961 after 48 hrs by microdilution broth method; type: functional, organism-based
Klebsiella pneumoniae [22] = test: Antibacterial activity against extended spectrum beta-lactamase-positive Klebsiella pneumoniae J 14368/08 after 24 to 48 hrs by microdilution broth method; type: functional, organism-based
Candida tropicalis [23] = test: Antifungal activity against Candida tropicalis 156 after 24 hrs by microdilution broth method; type: functional; conditions: Candida tropicalis, 156, 24 h
Candida tropicalis [24] = test: Antifungal activity against Candida tropicalis 156 after 48 hrs by microdilution broth method; type: functional; conditions: Candida tropicalis, 156, 48 h
Pichia kudriavzevii [25] = test: Antifungal activity against Candida krusei E28 after 24 hrs by microdilution broth method; type: functional; conditions: E28, 24 h
Pichia kudriavzevii [26] = test: Antifungal activity against Candida krusei E28 after 48 hrs by microdilution broth method; type: functional; conditions: E28, 48 h
Nakaseomyces glabratus [27] = test: Antifungal activity against Candida glabrata 20/I after 24 hrs by microdilution broth method; type: functional
Nakaseomyces glabratus [28] = test: Antifungal activity against Candida glabrata 20/I after 48 hrs by microdilution broth method; type: functional
[29] = system: Trichophyton mentagrophytes; test: Antifungal activity against Trichophyton mentagrophytes 445 after 72 hrs by microdilution broth method; type: functional; conditions: Trichophyton mentagrophytes, 445, 72 h
[30] = system: Trichophyton mentagrophytes; test: Antifungal activity against Trichophyton mentagrophytes 445 after 120 hrs by microdilution broth method; type: functional; conditions: Trichophyton mentagrophytes, 445, 120 h
Candida albicans = test: Antifungal activity against Candida albicans ATCC 44859 after 24 to 48 hrs by microdilution broth method; type: functional, organism-based
Trichosporon asahii = test: Antifungal activity against Trichosporon asahii 1188 after 24 to 48 hrs by microdilution broth method; type: functional, organism-based
Aspergillus fumigatus = test: Antifungal activity against Aspergillus fumigatus 231 after 24 to 48 hrs by microdilution broth method; type: functional, organism-based
Lichtheimia corymbifera = test: Antifungal activity against Absidia corymbifera 272 after 24 to 48 hrs by microdilution broth method; type: functional, organism-based
HepG2 [31] = test: Cytostatic activity against human HepG2 cells incubated overnight followed by compound wash measured after 72 hrs by MTT assay; type: ADME, cell-based; conditions: HepG2, 72 h
MONO-MAC-6 [32] = test: Cytostatic activity against human MONO-MAC-6 cells incubated overnight followed by compound wash measured after 72 hrs by MTT assay; type: ADME, cell-based; conditions: MONO-MAC-6, 72 h
HepG2 [33] = test: Cytotoxicity against human HepG2 cells after overnight incubation by MTT assay; type: cell-based
MONO-MAC-6 [34] = test: Cytotoxicity against human MONO-MAC-6 cells after overnight incubation by MTT assay; type: functional, cell-based
[35] = Cytotoxicity against mouse bone marrow macrophages after overnight incubation by MTT assay; conditions: BMDM
[36] = Selectivity index, ratio of IC50 for human HepG2 cells to MIC for Mycobacterium tuberculosis H37Rv 331/88; type: toxicity; conditions: read-out: Selectivity Index
[37] = Selectivity index, ratio of IC50 for human HepG2 cells to MIC for Mycobacterium avium 330/88; type: toxicity; conditions: read-out: Selectivity Index
[38] = Selectivity index, ratio of IC50 for human HepG2 cells to MIC for Mycobacterium kansasii 6509/80; type: toxicity; conditions: read-out: Selectivity Index
[39] = Selectivity index, ratio of IC50 for human HepG2 cells to MIC for Mycobacterium kansasii 6509/96; type: toxicity; conditions: read-out: Selectivity Index
[40] = Selectivity index, ratio of IC50 for human HepG2 cells to MIC for gram-positive Staphylococcus aureus CCM 4516/08; type: toxicity; conditions: read-out: Selectivity Index

O=C(N/N=C/c1ccc(Cl)cc1)c1ccc(C(F)(F)F)cc1
MIC [1]: 16 µM (≈ 5.23 µg/mL)
MIC [2]: 16 µM (≈ 5.23 µg/mL)
MIC (Mycobacterium avium [3]): > 125 µM
MIC (Mycobacterium avium [4]): > 125 µM
MIC (Mycobacterium kansasii [5]): 16 µM (≈ 5.23 µg/mL)
MIC (Mycobacterium kansasii [6]): 16 µM (≈ 5.23 µg/mL)
MIC (Mycobacterium kansasii [7]): 16 µM (≈ 5.23 µg/mL)
MIC (Mycobacterium kansasii [8]): 16 µM (≈ 5.23 µg/mL)
MIC (Mycobacterium kansasii [9]): 16 µM (≈ 5.23 µg/mL)
MIC (Mycobacterium kansasii [10]): 16 µM (≈ 5.23 µg/mL)
MIC (Staphylococcus aureus [11]): 62.5 µM (≈ 20.4 µg/mL)
MIC (Staphylococcus aureus [12]): 62.5 µM (≈ 20.4 µg/mL)
MIC (Staphylococcus aureus [13]): 62.5 µM (≈ 20.4 µg/mL)
MIC (Staphylococcus aureus [14]): 62.5 µM (≈ 20.4 µg/mL)
MIC [15]: 31.2 µM (≈ 10.2 µg/mL)
MIC [16]: 62.5 µM (≈ 20.4 µg/mL)
MIC (Enterococcus faecalis [17]): 62.5 µM (≈ 20.4 µg/mL)
MIC (Enterococcus faecalis [18]): > 125 µM
MIC (Escherichia coli [19]): > 125 µM
MIC (Escherichia coli [20]): > 125 µM
Activity (Klebsiella pneumoniae [21]): inactive
Activity (Pseudomonas aeruginosa): inactive
Activity (Klebsiella pneumoniae [22]): inactive
MIC (Candida tropicalis [23]): 125 µM (≈ 40.8 µg/mL)
MIC (Candida tropicalis [24]): 125 µM (≈ 40.8 µg/mL)
MIC (Pichia kudriavzevii [25]): 62.5 µM (≈ 20.4 µg/mL)
MIC (Pichia kudriavzevii [26]): 62.5 µM (≈ 20.4 µg/mL)
MIC (Nakaseomyces glabratus [27]): > 125 µM
MIC (Nakaseomyces glabratus [28]): > 125 µM
MIC [29]: 125 µM (≈ 40.8 µg/mL)
MIC [30]: 125 µM (≈ 40.8 µg/mL)
Activity (Candida albicans): inactive
Activity (Trichosporon asahii): inactive
Activity (Aspergillus fumigatus): inactive
Activity (Lichtheimia corymbifera): inactive
IC50 (HepG2 [31]): > 100 µM
IC50 (MONO-MAC-6 [32]): > 100 µM
IC50 (HepG2 [33]): > 100 µM
IC50 (MONO-MAC-6 [34]): > 100 µM
IC50 [35]: 7.05 µM
selectivity ratio [36]: > 6.25
selectivity ratio [37]: > 6.25
selectivity ratio [38]: > 6.25
selectivity ratio [39]: > 6.25
selectivity ratio [40]: > 1.6

O=C(N/N=C/c1ccc(O)cc1)c1ccc(C(F)(F)F)cc1
MIC [1]: 125 µM (≈ 38.5 µg/mL)
MIC [2]: 125 µM (≈ 38.5 µg/mL)
MIC (Mycobacterium avium [3]): 250 µM (≈ 77.1 µg/mL)
MIC (Mycobacterium avium [4]): 500 µM (≈ 154 µg/mL)
MIC (Mycobacterium kansasii [5]): 62.5 µM (≈ 19.3 µg/mL)
MIC (Mycobacterium kansasii [6]): 125 µM (≈ 38.5 µg/mL)
MIC (Mycobacterium kansasii [7]): 125 µM (≈ 38.5 µg/mL)
MIC (Mycobacterium kansasii [8]): 250 µM (≈ 77.1 µg/mL)
MIC (Mycobacterium kansasii [9]): 500 µM (≈ 154 µg/mL)
MIC (Mycobacterium kansasii [10]): 500 µM (≈ 154 µg/mL)
MIC (Staphylococcus aureus [11]): 250 µM (≈ 77.1 µg/mL)
MIC (Staphylococcus aureus [12]): 250 µM (≈ 77.1 µg/mL)
MIC (Staphylococcus aureus [13]): 250 µM (≈ 77.1 µg/mL)
MIC (Staphylococcus aureus [14]): 250 µM (≈ 77.1 µg/mL)
MIC [15]: 125 µM (≈ 38.5 µg/mL)
MIC [16]: 125 µM (≈ 38.5 µg/mL)
MIC (Enterococcus faecalis [17]): > 250 µM
MIC (Enterococcus faecalis [18]): > 250 µM
MIC (Escherichia coli [19]): > 250 µM
MIC (Escherichia coli [20]): > 250 µM
Activity (Klebsiella pneumoniae [21]): inactive
Activity (Pseudomonas aeruginosa): inactive
Activity (Klebsiella pneumoniae [22]): inactive
MIC (Candida tropicalis [23]): > 125 µM
MIC (Candida tropicalis [24]): > 125 µM
MIC (Pichia kudriavzevii [25]): > 125 µM
MIC (Pichia kudriavzevii [26]): > 125 µM
MIC (Nakaseomyces glabratus [27]): > 125 µM
MIC (Nakaseomyces glabratus [28]): > 125 µM
MIC [29]: > 125 µM
MIC [30]: > 125 µM
Activity (Candida albicans): inactive
Activity (Trichosporon asahii): inactive
Activity (Aspergillus fumigatus): inactive
Activity (Lichtheimia corymbifera): inactive
